Data set [1] has as its system thyroid hormone receptor (endogenous TRα and TRβ). Kind of data set: GH3-TRE-Ag primary qHTS, luciferase reporter, agonist mode (TOX21_TR_LUC_GH3_Agonist, aeid 803). Format: cell-based, rat.
A short description of data set [2]: in vitro. The settings on record: rat, gh3-tre-luc cells, AC50 (uM) modified / 1000.
Data set [3] concerns thyroid hormone receptor (TR). Briefly: Classification of TR actives across characterization assays (TR-Ag / RXR-Ag; TR model binary). To be noted: candidate chemicals in Tables 2 and 3 define actives. The source says: Active rate comparison between receptors. […]; [Kleinstreuer et al. 2017]). We first removed chemicals classified as pharmaceuticals because these sets of chemicals are biased toward drugs targeting estrogen receptors and androgen receptors. […]. For TR, we cross-referenced these same chemicals for testing against TR and used candidate chemicals in Tables 2 and 3 to define active rates.
Complete results from both GH3-TRE qHTS agonist, antagonist, and viability mode for the 8,305 compounds are provided in Excel Table S2. […]. […]. Together with some potential false negatives, these chemicals, totaling 84 in all, were screened for activity in a series of assays for confirmation in the GH3-TRE-Ag assay; specificity screening in the TRβ-UAS-bla HEK 293T and RXRα-UAS-bla HEK 293T mammalian one-hybrid assays; viability assays for the HEK293T parental cell line; and orthogonal screening in two TR:coactivator recruitment assays, TRa-coa and TRb-coa. […].

Data set [4] relates to GH3-TRE-Luc cell line. The settings on record: read-out: AC50 (uM) modified / 1000, viability, 1 nM T3 present, 24 h.
Setting [5] is: aeid 803 TOX21_TR_LUC_GH3_Agonist, tcpl output.

Structures can show the parent of a compound that is named as a salt. Where two headings read alike, the source gives them in different places.

Regarding `NC(CO)(CO)CO` [tromethamine], the “activity in GH3-TRE agonist assay” value in data set [1] was “completely inactive”. This compound also registered a CC50 at 24 h in data set [2] above 90 µM.
As for `CCCCCCCCCC=CCC1CC(=O)OC1=O` (centres unmarked) [(2-Dodecenyl)succinic anhydride], in data set [3], the TR_Model_Binary_Agonist was 0 and the TR_Model_Binary_Antagonist stood at 0. This compound also gave a CC50 at 24 h in data set [2] above 90 µM.
On to `O=C([O-])[C@H](O)[C@@H](O)[C@H](O)[C@H](O)CO.O=C([O-])[C@H](O)[C@@H](O)[C@H](O)[C@H](O)CO.[Ba+2]` [D-Gluconic acid, barium salt], for which, in data set [1] (Table S2, aeid 803, per sample), the “resp_max (maximum response value)” value is reported as 3.109 percent_activity. For the same compound, the hitc in data set [1] (Table S2, aeid 803, tcpl hit call) came out at 0. The compound further yielded a hitc_modified in data set [1] (Table S2, aeid 803, final hitc after manual review) of 0. Further, in data set [1] (Table S2, aeid 803, inactive set to 1000, read-out: AC50 (uM) modified), the AC50 is above 50 µM.
In data set [3], `CC(=O)OC(C)c1ccccc1` (racemic) [(+/-)-alpha-Methylbenzyl acetate] yielded a TR_Model_Binary_Agonist of 0 and a TR_Model_Binary_Antagonist of 0. The compound also came in with a CC50 at 24 h in data set [2] above 90 µM.
For `CC1=C(/C=C/C(C)=C/C=C/C(C)=C/C(=O)Nc2ccc(O)cc2)C(C)(C)CCC1` [4-Hydroxyphenyl retinamide], the CC50 in data set [4] (Tox21_110001=Tox21_111007) came to 6.39 µM. In addition, the CC50 at 24 h in data set [2] was found to be 10 µM.
As to `O=[N+]([O-])c1cc(N(CCO)CCO)ccc1NCCO` [HC Blue 2], in data set [4] (Tox21_110001=Tox21_302947), the CC50 stood at 91.6 µM. The CC50 at 24 h in data set [2] was above 90 µM.
On to `CC(C)(c1ccc(OCC2CO2)cc1)c1ccc(OCC2CO2)cc1` (centres unmarked) [Bisphenol A diglycidyl ether], for which, in data set [4] (Tox21_110001=Tox21_303315), the CC50 was 61.9 µM. In data set [2], the CC50 at 24 h was 66.1 µM.
`CCC(C)(c1ccc(O)cc1)c1ccc(O)cc1` [Bisphenol B]: the CC50 in data set [4] (Tox21_110001=Tox21_300198) was 88.4 µM. This compound also came in with a CC50 at 24 h in data set [2] of 78.3 µM.
For the compound `CC(CN1c2ccccc2Sc2ccccc21)N(C)C` (centres unmarked) [Promethazine hydrochloride], the CC50 in data set [4] (Tox21_110001=Tox21_302878) was determined as 23 µM. For the same compound, in data set [2], the CC50 at 24 h was 12.2 µM.
Consider `CC(=O)[C@H]1CC[C@H]2[C@@H]3CCC4=CC(=O)CC[C@]4(C)[C@H]3CC[C@]12C` [Progesterone], for which, in data set [4] (Tox21_110001=Tox21_300307), the CC50 is 81.7 µM. The same compound registered a CC50 at 24 h in data set [2] of 85.9 µM.
In the case of `Oc1ccc(C(c2ccc(O)cc2)C(Cl)(Cl)Cl)cc1` [2,2-Bis(4-hydroxyphenyl)-1,1,1-trichloroethane], the CC50 in data set [4] (Tox21_110001=Tox21_300656) was 55.1 µM. For the same compound, the CC50 at 24 h in data set [2] was determined as 74.8 µM.
`CCN(CC)CCOc1ccc(C(=C(Cl)c2ccccc2)c2ccccc2)cc1` [Clomiphene]: the CC50 in data set [4] (Tox21_110001=Tox21_113110) stood at 7.27 µM. This compound displayed a CC50 at 24 h in data set [2] of 6.61 µM.
As for `CC(COc1ccccc1)N(CCCl)Cc1ccccc1` (centres unmarked) [Phenoxybenzamine hydrochloride], the CC50 in data set [4] (Tox21_110001=Tox21_302978) came to 68.5 µM. The compound further had a CC50 at 24 h in data set [2] of 45 µM.
As for `CC(C)(C)C(O)(CCc1ccc(Cl)cc1)Cn1cncn1` (centres unmarked) [Tebuconazole], the CC50 in data set [4] (Tox21_110001=Tox21_300487) was determined as 57.7 µM. The compound also gave a CC50 at 24 h in data set [2] of 64.3 µM.
For `Cc1cc(C2(c3cc(C)c(O)cc3C)OS(=O)(=O)c3ccccc32)c(C)cc1O` [p-Xylenol blue], the CC50 in data set [4] (Tox21_110001=Tox21_303062) amounted to 47.5 µM. Besides, the CC50 at 24 h in data set [2] was found to be 56.6 µM.
As for `O=[N+]([O-])C(Br)(CO)CO` [Bronopol], the CC50 in data set [4] (Tox21_110001=Tox21_112079) came to 21.8 µM. The same compound came in with a CC50 at 24 h in data set [2] of 22 µM.
In the case of `N[C@@H](Cc1cc(I)c(O)c(I)c1)C(=O)O` [3,5-diiodo-L-tyrosine], in data set [1], the “activity in GH3-TRE agonist assay” value is “completely inactive” and the max_mean is listed as 0.9106 percent_activity. Besides, the max_med in data set [1] (aeid 803, at max_med_conc (log) -0.39794, coff 20) was found to be 0.5533 percent_activity. The hitc in data set [1] (aeid 803 TOX21_TR_LUC_GH3_Agonist, modl cnst) was determined as 0. In data set [1] (setting [5]), this compound gave a resp_max of 3.287 percent_activity and a resp_min of -1.703 percent_activity. Moreover, the CC50 at 24 h in data set [2] is above 50 µM.
For the compound `CN(C)CCC(c1ccc(Cl)cc1)c1ccccn1` (centres unmarked) [Chlorpheniramine maleate], in data set [4] (Tox21_110001=Tox21_303456), the CC50 is 41.3 µM. In data set [2], this compound came in with a CC50 at 24 h of 40.4 µM.
For `Cc1ccc(N)c(N)c1` [3,4-Diaminotoluene], the CC50 in data set [4] (Tox21_110001=Tox21_300507) turned out to be 18.4 µM. The CC50 at 24 h in data set [2] was 32.1 µM.
As to `O=[N+]([O-])c1ccc(Cl)c([N+](=O)[O-])c1` [1-Chloro-2,4-dinitrobenzene], the CC50 in data set [4] (Tox21_110001=Tox21_302802) is 10.1 µM. For the same compound, the CC50 at 24 h in data set [2] is 12.5 µM.
With `CCOc1cc(Oc2ccc(C(F)(F)F)cc2Cl)ccc1[N+](=O)[O-]` [Oxyfluorfen], the CC50 in data set [4] (Tox21_110001=Tox21_300827) was determined as 50 µM. The compound further had a CC50 at 24 h in data set [2] of 79.3 µM.
In the case of `CC(C)(C)CC(C)(C)c1ccc(O)c(-n2nc3ccccc3n2)c1` [Octrizole], the CC50 amounted to 21.6 µM in data set [4] (Tox21_110001=Tox21_112086) and 32.7 µM in data set [4] (Tox21_110001=Tox21_300498). The compound further displayed a CC50 at 24 h in data set [2] of 35.4 µM.
Regarding `c1ccc2sc(SSN3CCOCC3)nc2c1` [2-(Morpholin-4-yldithio)-1,3-benzothiazole], the CC50 in data set [4] (Tox21_110001=Tox21_303278) was 35 µM. In addition, the CC50 at 24 h in data set [2] amounted to 18.6 µM.
For the compound `CC[n+]1c(-c2ccccc2)c2cc(N)ccc2c2ccc(N)cc21` [Ethidium bromide], in data set [4] (Tox21_110001=Tox21_111123), the CC50 was 37.9 µM. In data set [2], this compound had a CC50 at 24 h of 47.9 µM.
`CC(C)N(C(=O)SCC(Cl)=C(Cl)Cl)C(C)C` [Tri-allate]: the CC50 in data set [4] (Tox21_110001=Tox21_300671) was 53.5 µM. The compound also gave a CC50 at 24 h in data set [2] of 55.9 µM.
In the case of `CCCCCCCC[N+](C)(C)CCCCCCCC` [Dioctyldimethylammonium chloride], in data set [4] (Tox21_110001=Tox21_113024), the CC50 came out at 20.1 µM. In addition, the CC50 at 24 h in data set [2] was 19.4 µM.
`Clc1ccccc1C(c1ccccc1)(c1ccccc1)n1ccnc1` [Clotrimazole]: the CC50 in data set [4] (Tox21_110001=Tox21_110111) amounted to 8.57 µM. This compound yielded a CC50 at 24 h in data set [2] of 5.21 µM.
`CCc1cccc(CC)c1N(COC)C(=O)CCl` [Alachlor]: the CC50 in data set [4] (Tox21_110001=Tox21_300713) was 78.7 µM. In data set [2], this compound came in with a CC50 at 24 h above 90 µM.
With `CCCCCCCCCCCCc1ccccc1O` [Dodecylphenol], the CC50 in data set [4] (Tox21_110001=Tox21_303360) came to 15.3 µM. In addition, the CC50 at 24 h in data set [2] was found to be 11.8 µM.
Turning to `O=C1OC2(c3ccccc31)c1cc(I)c(O)c(I)c1Oc1c2cc(I)c(O)c1I` [Erythrosin B], the CC50 in data set [4] (Tox21_110001=Tox21_301634) stood at 19.8 µM. Also, the CC50 at 24 h in data set [2] came to 16.4 µM.
Take `C1CN(SSN2CCOCC2)CCO1` [4,4'-Dithiodimorpholine]: in data set [4] (Tox21_110001=Tox21_303110), the CC50 turned out to be 49.5 µM. The CC50 at 24 h in data set [2] is 69.4 µM.
Consider `CCCCCCCOC(=O)c1ccc(O)cc1` [Heptylparaben], for which the CC50 in data set [4] (Tox21_110001=Tox21_303458) was 50.7 µM. Also, the CC50 at 24 h in data set [2] is 47.8 µM.

(Values after PMC6792352, “Limited Chemical Structural Diversity Found to Modulate Thyroid Hormone Receptor in the Tox21 Chemical Library” (Environmental Health Perspectives, 2019).)
